Source: paper PMC6582486, “Stapled EGFR peptide reduces inflammatory breast cancer and inhibits additional HER-driven models of cancer” (Journal of Translational Medicine, 2019)
Where a SMILES comes first, the peptide text is derived from it. Bridges are numbered along the chain shown (N, C = ends). [ ]: non-standard residue; d: D form. R8 = C=CCCCCCC[C@@](C)(N)C(=O)O; S5 = C=CCCC[C@](C)(N)C(=O)O

Assay: Plasma concentration after tail-vein injection (toxicokinetics);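 as to SAH-EJ1 concentration in plasma: BQL means below the quantifiable limit of 0.5 µg/mL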
Assay type: in vivo, CD-1 mice
Procedure: Toxicology was performed by IITRI. The study was conducted in compliance with the US Food and Drug Administration (FDA) good laboratory practice (GLP) Regulations (Code of Federal Regulations Title 21 Part 58) to evaluate the toxicokinetics, local tolerability, immunogenicity, and potential toxicity of SAH5-EJ1 following three times per week intravenous (IV) dosing for 28 days in mice. Male and female CD-1 IGS [Crl:CD1(ICR)] mice (135 per sex) were received from Wilmington, MA-based Charles River Laboratories, Inc.’s Kingston facility (Stone Ridge, NY).

## CC[C@H](C)[C@H](NC(=O)[C@H](Cc1c[nH]cn1)NC(=O)[C@H](CCCNC(=N)N)NC(=O)[C@H](CCCNC(=N)N)NC(=O)[C@H](CCCNC(=N)N)NC(=O)[C@H](CCSC)NC(=O)[C@H](Cc1ccccc1)NC(=O)[C@H](C)NC(=O)[C@H](CCCNC(=N)N)NC(=O)[C@H](C)NC(=O)[C@H](CCC(N)=O)NC(=O)[C@H](CCCNC(=N)N)NC(=O)[C@H](C)NC(=O)[C@H](C)NC(=O)[C@H](C)NC(=O)[C@H](CCCNC(=N)N)NC(=O)[C@H](C)NC(=O)[C@@H](N)Cc1ccc(O)cc1)C(=O)N[C@H](C(=O)N[C@@H](CCCNC(=N)N)C(=O)N[C@@H](CCCCN)C(=O)N[C@@H](CCCNC(=N)N)C(=O)N[C@]1(C)CCCCCCC=CCCC[C@@](C)(C(=O)N[C@@H](CCCNC(=N)N)C(=O)N[C@@H](CCC(=O)O)C(N)=O)NC(=O)[C@H](CCC(N)=O)NC(=O)[C@H](CC(C)C)NC(=O)[C@H](CC(C)C)NC(=O)[C@H](CCCNC(=N)N)NC(=O)[C@H](CCCNC(=N)N)NC(=O)[C@H](CC(C)C)NC1=O)C(C)C [SAH5-EJ1] (H-YARAAARQARAFMRRRHIVRKR[R8]LRRLLQ[S5]RE-NH2; staple 23-30)
female, 10 mg/kg IV, day 1, 2 h, mouse 2 of 3
  SAH-EJ1 concentration in plasma: BQL (BQL represents below quantifiable limits (0.5 µg/mL))
female, 10 mg/kg IV, day 1, 2 h, mouse 3 of 3
  SAH-EJ1 concentration in plasma: BQL (BQL represents below quantifiable limits (0.5 µg/mL))
female, 10 mg/kg IV, day 1, 4 h, mouse 1 of 3
  SAH-EJ1 concentration in plasma: BQL (BQL represents below quantifiable limits (0.5 µg/mL))
female, 10 mg/kg IV, day 1, 4 h, mouse 2 of 3
  SAH-EJ1 concentration in plasma: BQL (BQL represents below quantifiable limits (0.5 µg/mL))
female, 10 mg/kg IV, day 1, 4 h, mouse 3 of 3
  SAH-EJ1 concentration in plasma: BQL (BQL represents below quantifiable limits (0.5 µg/mL))
female, 10 mg/kg IV, day 1, 8 h, mouse 1 of 3
  SAH-EJ1 concentration in plasma: BQL (BQL represents below quantifiable limits (0.5 µg/mL))
female, 10 mg/kg IV, day 1, 8 h, mouse 2 of 3
  SAH-EJ1 concentration in plasma: BQL (BQL represents below quantifiable limits (0.5 µg/mL))
female, 10 mg/kg IV, day 1, 8 h, mouse 3 of 3
  SAH-EJ1 concentration in plasma: BQL (BQL represents below quantifiable limits (0.5 µg/mL))
female, 10 mg/kg IV, day 1, 24 h, mouse 1 of 3
  SAH-EJ1 concentration in plasma: BQL (BQL represents below quantifiable limits (0.5 µg/mL))
female, 10 mg/kg IV, day 1, 24 h, mouse 2 of 3
  SAH-EJ1 concentration in plasma: BQL (BQL represents below quantifiable limits (0.5 µg/mL))
female, 10 mg/kg IV, day 1, 24 h, mouse 3 of 3
  SAH-EJ1 concentration in plasma: BQL (BQL represents below quantifiable limits (0.5 µg/mL))
female, 15 mg/kg IV, day 1, 0.5 h, mouse 3 of 3
  SAH-EJ1 concentration in plasma: BQL (BQL represents below quantifiable limits (0.5 µg/mL))
female, 15 mg/kg IV, day 1, 1 h, mouse 2 of 3
  SAH-EJ1 concentration in plasma: BQL (BQL represents below quantifiable limits (0.5 µg/mL))
female, 15 mg/kg IV, day 1, 2 h, mouse 1 of 3
  SAH-EJ1 concentration in plasma: BQL (BQL represents below quantifiable limits (0.5 µg/mL))
female, 15 mg/kg IV, day 1, 2 h, mouse 2 of 3
  SAH-EJ1 concentration in plasma: BQL (BQL represents below quantifiable limits (0.5 µg/mL))
female, 15 mg/kg IV, day 1, 2 h, mouse 3 of 3
  SAH-EJ1 concentration in plasma: BQL (BQL represents below quantifiable limits (0.5 µg/mL))
female, 15 mg/kg IV, day 1, 4 h, mouse 1 of 3
  SAH-EJ1 concentration in plasma: BQL (BQL represents below quantifiable limits (0.5 µg/mL))
female, 15 mg/kg IV, day 1, 4 h, mouse 2 of 3
  SAH-EJ1 concentration in plasma: BQL (BQL represents below quantifiable limits (0.5 µg/mL))
female, 15 mg/kg IV, day 1, 4 h, mouse 3 of 3
  SAH-EJ1 concentration in plasma: BQL (BQL represents below quantifiable limits (0.5 µg/mL))
female, 15 mg/kg IV, day 1, 8 h, mouse 1 of 3
  SAH-EJ1 concentration in plasma: BQL (BQL represents below quantifiable limits (0.5 µg/mL))
female, 15 mg/kg IV, day 1, 8 h, mouse 2 of 3
  SAH-EJ1 concentration in plasma: BQL (BQL represents below quantifiable limits (0.5 µg/mL))
female, 15 mg/kg IV, day 1, 8 h, mouse 3 of 3
  SAH-EJ1 concentration in plasma: BQL (BQL represents below quantifiable limits (0.5 µg/mL))
female, 15 mg/kg IV, day 1, 24 h, mouse 1 of 3
  SAH-EJ1 concentration in plasma: BQL (BQL represents below quantifiable limits (0.5 µg/mL))
female, 15 mg/kg IV, day 1, 24 h, mouse 2 of 3
  SAH-EJ1 concentration in plasma: BQL (BQL represents below quantifiable limits (0.5 µg/mL))
female, 15 mg/kg IV, day 1, 24 h, mouse 3 of 3
  SAH-EJ1 concentration in plasma: BQL (BQL represents below quantifiable limits (0.5 µg/mL))
Male mice, highest body weight dosage
  time by which peptide was not detectable in plasma: ≤ 4 h
male, 5 mg/kg IV, day 1, 1 h, mouse 3 of 3
  SAH-EJ1 concentration in plasma: BQL (BQL represents below quantifiable limits (0.5 µg/mL))
male, 5 mg/kg IV, day 1, 2 h, mouse 1 of 3
  SAH-EJ1 concentration in plasma: BQL (BQL represents below quantifiable limits (0.5 µg/mL))
male, 5 mg/kg IV, day 1, 2 h, mouse 2 of 3
  SAH-EJ1 concentration in plasma: BQL (BQL represents below quantifiable limits (0.5 µg/mL))
male, 5 mg/kg IV, day 1, 2 h, mouse 3 of 3
  SAH-EJ1 concentration in plasma: BQL (BQL represents below quantifiable limits (0.5 µg/mL))
male, 5 mg/kg IV, day 1, 4 h, mouse 1 of 3
  SAH-EJ1 concentration in plasma: BQL (BQL represents below quantifiable limits (0.5 µg/mL))
male, 5 mg/kg IV, day 1, 4 h, mouse 2 of 3
  SAH-EJ1 concentration in plasma: BQL (BQL represents below quantifiable limits (0.5 µg/mL))
male, 5 mg/kg IV, day 1, 4 h, mouse 3 of 3
  SAH-EJ1 concentration in plasma: BQL (BQL represents below quantifiable limits (0.5 µg/mL))
male, 5 mg/kg IV, day 1, 8 h, mouse 1 of 3
  SAH-EJ1 concentration in plasma: BQL (BQL represents below quantifiable limits (0.5 µg/mL))
male, 5 mg/kg IV, day 1, 8 h, mouse 2 of 3
  SAH-EJ1 concentration in plasma: BQL (BQL represents below quantifiable limits (0.5 µg/mL))
male, 5 mg/kg IV, day 1, 8 h, mouse 3 of 3
  SAH-EJ1 concentration in plasma: BQL (BQL represents below quantifiable limits (0.5 µg/mL))
male, 5 mg/kg IV, day 1, 24 h, mouse 1 of 3
  SAH-EJ1 concentration in plasma: BQL (BQL represents below quantifiable limits (0.5 µg/mL))
male, 5 mg/kg IV, day 1, 24 h, mouse 2 of 3
  SAH-EJ1 concentration in plasma: BQL (BQL represents below quantifiable limits (0.5 µg/mL))
male, 5 mg/kg IV, day 1, 24 h, mouse 3 of 3
  SAH-EJ1 concentration in plasma: BQL (BQL represents below quantifiable limits (0.5 µg/mL))
male, 10 mg/kg IV, day 1, 2 h, mouse 1 of 3
  SAH-EJ1 concentration in plasma: BQL (BQL represents below quantifiable limits (0.5 µg/mL))
male, 10 mg/kg IV, day 1, 2 h, mouse 2 of 3
  SAH-EJ1 concentration in plasma: BQL (BQL represents below quantifiable limits (0.5 µg/mL))
male, 10 mg/kg IV, day 1, 2 h, mouse 3 of 3
  SAH-EJ1 concentration in plasma: BQL (BQL represents below quantifiable limits (0.5 µg/mL))
male, 10 mg/kg IV, day 1, 4 h, mouse 1 of 3
  SAH-EJ1 concentration in plasma: BQL (BQL represents below quantifiable limits (0.5 µg/mL))
male, 10 mg/kg IV, day 1, 4 h, mouse 2 of 3
  SAH-EJ1 concentration in plasma: BQL (BQL represents below quantifiable limits (0.5 µg/mL))
male, 10 mg/kg IV, day 1, 4 h, mouse 3 of 3
  SAH-EJ1 concentration in plasma: BQL (BQL represents below quantifiable limits (0.5 µg/mL))
male, 10 mg/kg IV, day 1, 8 h, mouse 1 of 3
  SAH-EJ1 concentration in plasma: BQL (BQL represents below quantifiable limits (0.5 µg/mL))
male, 10 mg/kg IV, day 1, 8 h, mouse 2 of 3
  SAH-EJ1 concentration in plasma: BQL (BQL represents below quantifiable limits (0.5 µg/mL))
male, 10 mg/kg IV, day 1, 8 h, mouse 3 of 3
  SAH-EJ1 concentration in plasma: BQL (BQL represents below quantifiable limits (0.5 µg/mL))
male, 10 mg/kg IV, day 1, 24 h, mouse 1 of 3
  SAH-EJ1 concentration in plasma: BQL (BQL represents below quantifiable limits (0.5 µg/mL))
male, 10 mg/kg IV, day 1, 24 h, mouse 2 of 3
  SAH-EJ1 concentration in plasma: BQL (BQL represents below quantifiable limits (0.5 µg/mL))
male, 10 mg/kg IV, day 1, 24 h, mouse 3 of 3
  SAH-EJ1 concentration in plasma: BQL (BQL represents below quantifiable limits (0.5 µg/mL))
male, 15 mg/kg IV, day 1, 1 h, mouse 1 of 3
  SAH-EJ1 concentration in plasma: BQL (BQL represents below quantifiable limits (0.5 µg/mL))
male, 15 mg/kg IV, day 1, 2 h, mouse 1 of 3
  SAH-EJ1 concentration in plasma: BQL (BQL represents below quantifiable limits (0.5 µg/mL))
male, 15 mg/kg IV, day 1, 2 h, mouse 3 of 3
  SAH-EJ1 concentration in plasma: BQL (BQL represents below quantifiable limits (0.5 µg/mL))
male, 15 mg/kg IV, day 1, 4 h, mouse 1 of 3
  SAH-EJ1 concentration in plasma: BQL (BQL represents below quantifiable limits (0.5 µg/mL))
male, 15 mg/kg IV, day 1, 4 h, mouse 2 of 3
  SAH-EJ1 concentration in plasma: BQL (BQL represents below quantifiable limits (0.5 µg/mL))
male, 15 mg/kg IV, day 1, 4 h, mouse 3 of 3
  SAH-EJ1 concentration in plasma: BQL (BQL represents below quantifiable limits (0.5 µg/mL))
male, 15 mg/kg IV, day 1, 8 h, mouse 1 of 3
  SAH-EJ1 concentration in plasma: BQL (BQL represents below quantifiable limits (0.5 µg/mL))
male, 15 mg/kg IV, day 1, 8 h, mouse 2 of 3
  SAH-EJ1 concentration in plasma: BQL (BQL represents below quantifiable limits (0.5 µg/mL))
male, 15 mg/kg IV, day 1, 8 h, mouse 3 of 3
  SAH-EJ1 concentration in plasma: BQL (BQL represents below quantifiable limits (0.5 µg/mL))
male, 15 mg/kg IV, day 1, 24 h, mouse 1 of 3
  SAH-EJ1 concentration in plasma: BQL (BQL represents below quantifiable limits (0.5 µg/mL))
male, 15 mg/kg IV, day 1, 24 h, mouse 2 of 3
  SAH-EJ1 concentration in plasma: BQL (BQL represents below quantifiable limits (0.5 µg/mL))
male, 15 mg/kg IV, day 1, 24 h, mouse 3 of 3
  SAH-EJ1 concentration in plasma: BQL (BQL represents below quantifiable limits (0.5 µg/mL))
